Measured values taken from patent US10280156B2, “Heteroaromatic chalcone derivatives and their medical use” (Medizinische Universität Wien, priority 2014, dated 2019).

Tests used:
Jurkat = assay: Viability test on Jurkat cells; type: cell-based, human
Description: JURKAT and CCRF-CEM (T-cell acute lymphoblastic leukemia), HL60 and K562 representing acute and chronic myeloid leukemia, respectively, the chronic lymphocytic leukemia cell line MEC-1, and the diffuse large B-cell lymphoma cell line U-2940 were cultured in Gibco RPMI 1640+GlutaMAX (Life Technologies, Carlsbad, Calif., USA) supplemented with 10% fetal bovine serum gold (FBS gold; PAA Laboratories, Pasching, Austria) and 1% PenStrep (100 U/ml penicillin and 100 μg/ml streptomycin; PAA Laboratories), and maintained at 37° C. in humidified atmosphere with 5% CO2. […]
All experiments with hematological cell lines were done using phenol red-free RPMI 1640+L-glutamine (PAA Laboratories) supplemented with 1% PenStrep and 10% FBS gold, except experiments with OCI-Ly7 which were carried out in Gibco IMEM+GlutaMAX and 25 mM HEPES containing 20% FBS gold and 1% PenStrep. Cells were incubated in triplicates with increasing concentrations of the compounds for 48 h, changes in viability were determined using the cell proliferation and cytotoxicity assays EZ4U (Biomedica Group, Austria) and CellTiter-Blue Cell Viability Assay (Promega, Madison, Wis., USA) following instructions of the manufacturers. IC50 values were calculated from two independent experiments using GraphPad Prism 5 software. […]

M2-10B4 = assay: Viability test on mouse fibroblast cell line M2-10B4, 48 h; type: cell-based; settings: Mus musculus, M210B4, 48 h, 48 h incubation; mouse fibroblast cell line
Description: (§1) All experiments with hematological cell lines were done using phenol red-free RPMI 1640+L-glutamine (PAA Laboratories) supplemented with 1% PenStrep and 10% FBS gold, except experiments with OCI-Ly7 which were carried out in Gibco IMEM+GlutaMAX and 25 mM HEPES containing 20% FBS gold and 1% PenStrep. Cells were incubated in triplicates with increasing concentrations of the compounds for 48 h, changes in viability were determined using the cell proliferation and cytotoxicity assays EZ4U (Biomedica Group, Austria) and CellTiter-Blue Cell Viability Assay (Promega, Madison, Wis., USA) following instructions of the manufacturers. IC50 values were calculated from two independent experiments using GraphPad Prism 5 software.
Structurally seen, the small molecule compound 1 represents a typical chalcone scaffold. It is characterized by an ortho-ethoxy-substituted phenyl part as ring A and a 2-naphthyl moiety symbolizing ring B. The focus of the present study was to guide the systematic identification of a growth inhibitor with specificity to neoplastic cells, as cytotoxicity towards healthy cells is mostly associated with adverse effects, which can be related to morbidity and mortality of the patient (Milligan D W et al. Brit J Haematol 2006, 135, 450-474). To discriminate in vitro between structural elements necessary for potent cytotoxicity towards tumor cells which, at the same time, clearly show less activity on normal cells, the compounds were additionally tested on the murine bone marrow fibroblast cell line M2-10B4. This cell line is regularly used as feeder layer when cultured with patient cells providing additional support and survival signals in particular in drug screens (Kurtova A V et al. Blood 2009, 114, 4441-4450).
Initially, compounds were biologically tested in six concentration steps (0.1 μM; 1 μM; 5 μM; 10 μM; 50 μM; and 100 μM) using the CellTiter-Blue Cell Viability Assay (Promega, Madison, Wis., USA) and an incubation time of 48 hours. […] IC50 values were calculated from at least two independent experiments with 3 replicates each. In order to evaluate the biologic activity of the new compounds, cytotoxicity was compared to that of fludarabine, an already approved drug for the treatment of various B-cell malignancies. […] Differences in IC50 values for the different cell types can be explained by the biological and genetic particularities of each subtype of B-cell Non-Hodgkin lymphoma (Stacchini A et al. Leukemia Res 1999, 23, 127-136; Sambade C et al. Int J Cancer 2006, 118, 555-563; Chang H et al. Leukemia lymphoma 1995, 19, 165-171; Tweeddale M E et al. Blood 1987, 69, 1307-1314; Tweeddale M et al. Blood 1989, 74, 572-578).

SU-DHL9 = assay: Viability test on SU-DHL9 cells; type: cell-based, human
Description: as §1
Hematologic malignancies are highly heterogeneous in their biology and behavior. This and the fact that some patient groups are resistant to therapy underlines the urgent need for new therapeutic drugs. Compound 15 has therefore been tested on other cell lines representing a variety of hematologic neoplasms: two T-cell acute leukemia cell lines (CCRF, Jurkat), two myeloid leukemia cell lines (HL60, K562), and two additional B-cell lines (SU-DHL6, SU-DHL9). Viability was assessed as described in the methods section above. […] An exception was the chronic myeloid leukemia line K562. […]

[1] = system: PBMC of healthy individuals; assay: Viability of healthy donor cells in suspension culture; type: cell-based; settings: Homo sapiens, 48 h, read-out: IC50 HD Suspension
Excerpt: Hematological cell lines were acquired from the Leibniz Institute DSMZ-German Collection of Microorganisms and Cell Cultures (www.dsmz.de). Sixteen patients diagnosed with chronic lymphocytic leukemia at the Division of Hematology and Hemostaseology at the Vienna General Hospital and four healthy donors were included in the study. All participants signed informed consent according to the Declaration of Helsinki (Ethics Committee Nr: EK 1722/2012). Peripheral blood mononuclear cells (PBMC) were isolated using standardized Ficoll-Hypaque gradient centrifugation (Seromed, Berlin, Germany) and stored in liquid nitrogen until use. […]
Primary cells were incubated at a density of 300,000 cells per well in 96-well plates in a total volume of 100 μl of Gibco RPMI 1640+L-glutamine (PAA Laboratories) supplemented with 20% FBS gold with increasing concentrations of compounds for 48 h. […] Viability was measured using CellTiter-Blue Cell Viability Assay (Promega, Madison, Wis., USA) following the instructions of the manufacturers. Experiments with primary cells were done in triplicates, IC50 values were calculated from the mean values of all samples used in the various experiments using GraphPad Prism 5 software. […]

CCOc1ccccc1C(=O)/C=C/c1cc2ccccc2[nH]1 [Compound 15, 1-(2-Ethoxyphenyl)-3-(1H-indole-2-yl)-2-propen-1-one]
IC50 (Jurkat; Homo sapiens, T-cell acute leukemia, nd = no significant cytotoxic activity up to 100 μM): 0.04 µM
viability, % of control (Jurkat; at concentrations <1 μM): less than 30 % of control
IC50 (M2-10B4): 19.2 µM
IC50 (SU-DHL9; Homo sapiens, B-cell lymphoma, nd = no significant cytotoxic activity up to 100 μM): 0.03 µM
viability, % of control (SU-DHL9; SU-DHL9, at concentrations <1 μM): less than 30 % of control
IC50 [1]: 13.6 µM
